Assay results: PMC3208124 (Journal of medicinal chemistry, 2011)

How the values were obtained:
[1] = tested on: Plasmodium falciparum 3D7 (drug sensitive) strain; assay: Growth inhibition of P. falciparum 3D7 in erythrocytic co-culture; assay type: cell-based; settings: 3D7, read-out: EC50 3D7
[2] = tested on: Plasmodium falciparum K1 (drug resistant) strain; assay: Growth inhibition of P. falciparum K1 in erythrocytic co-culture; assay type: cell-based; settings: K1, read-out: EC50 K1

EC50 [1]: ≤ 100 nM
EC50 [2]: ≤ 100 nM
Structure (SMILES): O=C(CCc1ccccc1)c1ccccc1OCC(O)CN1CCN(C(c2ccccc2)c2ccccc2)CC1 (centres unmarked) [Compound 6z]
